Counter-ions that a name gives are not always drawn.
system: pituitary cells (growth hormone release); experiment: GH release promoting activity in cultured rat pituitary cells (GH level of supernatant by RIA); type: cell-based, rat (Wistar/ST); details: compound concentration 10000 nM, 15 min at 37° C.
Method: Benzimidazolidinone derivatives of the present invention were evaluated for their growth hormone (GH) release promoting activity by reference to the method described in a literature (R. G. Smith et al., Science, 260, 1640 (1993)).
Pituitary glands removed from 7-week-old male Wistar/ST rats were washed three times with HBSS(−) and the tissue was minced into small pieces (ca. 1 mm square) using a pair of scissors. The tissues were transferred to a 15 ml round-bottom centrifuge tube and washed three times with HBSS(−) (10 ml). An enzyme solution (0.1 ml per one pituitary gland) was added and enzymatic digestion was started in a water bath at 37° C. During the process, the mixture was pipetted every 5 minutes and the treatment was continued for ca 20-30 min until the cells were dispersed. The resulting cell suspension was centrifuged at 1200 rpm for 2-3 min at room temperature and the supernatant was discarded. A culture medium (8 ml) was added. Similar procedure was repeated twice and the dispersed cells were washed. The cells were plated in a 96-well plate (1×10^4 cells/100 μl/well) and incubation was started at 37° C. under 5% CO2 atmosphere.
Three days after the start of the culture, the supernatant was discarded and an assay medium was added. The cells were incubated for 1.5 h and washed once with the assay medium. A test compound solution was added and the cells were reacted at 37° C. for 15 min in an incubator under 5% CO2. The supernatant was recovered and the GH level thereof was measured by RIA.
A sample (50 μl) diluted with RIA buffer (1% BSA, 0.1% NaN3 and 25 mM EDTA/PBS (pH 7.6)), [^125I]-labeled GH solution (50 μl, ca. 10,000 cpm), and rabbit antiserum (diluted 1,000-fold) against rat GH (50 μl, Biogenesis Co) were placed in each well of a 96-well plate for RIA (Coster Co) and the mixture was reacted for 3 days at 4° C. Cell membrane fractions containing protein A were added and the mixture was allowed to stand for 20 min and centrifuged. The supernatant was recovered and the precipitates were washed with the RIA buffer. The ^125I amount was measured. The GH level of the sample was calculated from the standard curve drawn using the standard GH.
The composition of the culture medium was DMEM containing 10% horse serum, 2.5% fetal bovine serum, 1% nonessential amino acids, 1% antibiotics. The composition of the assay medium was 25 mM HEPES/culture medium (pH 7.3). The test compound solution was prepared by adding a compound solution (1 μl), adjusted to 1000-fold concentration with DMSO, to an assay medium (1 ml). Collagenase (400 mg), DNase type I (1 mg), and BSA (1 g) were dissolved in a 25 mM HEPES buffer (pH 7.4, 40 ml) containing 0.8% NaCl, 0.037% KCl, 0.9% glucose, 1% streptomycin-penicillin and 0.7 mM Na2HPO4, and 1 mg/ml CaCl2 (226 μl) was added. The resulting solution was adjusted to a final volume of 50 ml by adding a HEPES buffer and sterilized by filtration through a 0.22 μm filter and used as the enzyme solution.
The GH release promoting activity of the compounds of Examples is shown in the following. For the activity, the ratio of GH level of the supernatant in the presence of the test compound (compound concentration 10000 nM) to GH level of supernatant in the absence of the compound (GH level of supernatant in the presence of the compound/GH level of supernatant in the absence of the compound).

Question: How did the “GH release promoting activity = (GH level of supernatant in the presence of the compound)/(GH level of supernatant in the absence of the compound)” value (“GH release promoting activity =” below) turn out when `CCN(CC)CCn1c(=O)n(Cc2cccc(Cl)c2)c2c(C(F)(F)F)cc(C(N)=O)cc21` [Example 3, 1-(3-chlorobenzyl)-3-[2-(diethylamino)ethyl]-2-oxo-7-(trifluoromethyl)-2,3-dihydro-1H-benzimidazole-5-carboxamide trifluoroacetate] was run?
Answer: 1.2

Question: `CCN(CC)CCn1c(=O)n(Cc2cccc(C(F)(F)F)c2)c2c(C(F)(F)F)cc(C(N)=O)cc21` [Example 9, 3-[2-(diethylamino)ethyl]-2-oxo-7-(trifluoromethyl)-1-[3-(trifluoromethyl)benzyl]-2,3-dihydro-1H-benzimidazole-5-carboxamide trifluoroacetate] was tested. Which “GH release promoting activity =” value did it give?
Answer: 1.3

Question: For `CCN(CC)CCn1c(=O)n(Cc2ccccc2Cl)c2c(C(F)(F)F)cc(C(N)=O)cc21` [Example 5, 1-(2-chlorobenzyl)-3-[2-(diethylamino)ethyl]-2-oxo-7-(trifluoromethyl)-2,3-dihydro-1H-benzimidazole-5-carboxamide trifluoroacetate], which “GH release promoting activity =” value is on record?
Answer: 1.3

Question: `CCN(CC)CCn1c(=O)n(-c2ccc(Cl)cc2Cl)c2c(C(F)(F)F)cc(C(N)=O)cc21` [Example 8, 1-(2,4-dichlorophenyl)-3-[2-(diethylamino)ethyl]-2-oxo-7-(trifluoromethyl)-2,3-dihydro-1H-benzimidazole-5-carboxamide trifluoroacetate] was tested. Which “GH release promoting activity =” value did it give?
Answer: 2.1

Question: How did the “GH release promoting activity =” value turn out when `CCN(CC)CCn1c(=O)n(Cc2ccccc2C)c2c(C(F)(F)F)cc(C(N)=O)cc21` [Example 16, 3-[2-(diethylamino)ethyl]-1-(2-methylbenzyl)-2-oxo-7-(trifluoromethyl)-2,3-dihydro-1H-benzimidazole-5-carboxamide trifluoroacetate] was run?
Answer: 1.0

Question: For `CCN(CC)CCn1c(=O)n(-c2ccc(Cl)cc2)c2c(C(F)(F)F)cc(C(N)=O)cc21` [Example 7, 1-(4-chlorophenyl)-3-[2-(diethylamino)ethyl]-2-oxo-7-(trifluoromethyl)-2,3-dihydro-1H-benzimidazole-5-carboxamide trifluoroacetate], which “GH release promoting activity =” value is on record?
Answer: 3.0

Reference: patent US6939887B2, “Benzimidazolidinone derivatives” (Sumitomo Pharmaceuticals Co., Ltd., priority 2001, dated 2005)
